The subject of data set [1] is CCL2 mRNA. Kind of data set: Quantitative RT-PCR of mRNA at the wound site. In kind it is in vivo, mice. The following applies: added to antibiotic ointment; day 3; p<0.05. Here is the method: (§1) Tissue from the biopsy site was excised, homogenized in Trizol, and extracted with chloroform. […] 1 μg of total RNA was reverse-transcribed using the QUANTITECT™ Reverse Transcription. Kit (QIAGEN®). Purified cDNA was used as the template for quantitative RT-PCR conducted using pre-designed primer/probe sets for interleucin (IL)-1β, CCL2, IFNa, IFNβ, basic fibroblast growth factor (FGF), transforming growth factor (TGF)β, and glyceraldehyde 3-phosphate dehydrogenase (GAPDH) (Applied Biosystems, Foster City, Calif.). Gene expression levels were analyzed using the STEPONEPLUS™ RT-PCR system (APPLIED BIOSYSTEMS®). All reagents and probes used in this system were purchased from APPLIED BIOSYSTEMS®.

The test system of data set [2] is IFNa. Kind of data set: Quantitative RT-PCR of mRNA at the wound site. In kind it is in vivo, mice. To be noted: day 3 after biopsy. On the procedure: as §1
For data set [3], the system named is IFNβ. Kind of data set: Quantitative RT-PCR of mRNA at the wound site. In kind it is in vivo, mice. The following applies: day 3 after biopsy. On the procedure:
as §1

In data set [4] the test system is BALB/c mice. Kind of data set: Murine in vivo wound repair model (6 mm full-thickness excisional punch biopsy). To be noted: for effect on delay in wound healing caused by antibiotic: TLR ligand incorporated into / co-administered with antibiotic ointment; for effect on wound healing: simply applied over a pre-existing layer of antibiotic ointment or petrolatum. Here is the method: The wound repair model of Devalaraja et al (J Invest Dermatol 2000; 115: 234-44) was used. Skin on the back was shaved and treated antibiotic ointment or petrolatum. In some studies, mice were injected s.c. at the base of the tail with 50 ug/g of vancomycin and imipenrm/cilastatin (Fernandez et al., Antimicrob Agents Chemother 2010; 54: 116-25, 2010). Fourteen days later, the mice were anesthetized by intraperitoneal injection of ketamine (80 μg/g) plus xylazine (10 ug/g). The skin on the back was gently cleaned with PBS. A 6 mm full-thickness excisional punch biopsy (including the Pannilulus carnosus) was taken using an ACU-PUNCH® (Fort Lauderdale, Fla.) from the right and left upper paravertebral region of each animal. Individual biopsy sites were coated with 100 μl of antibiotic ointment±50 μg CpG ODN and/or 5 μg IMQ, and then covered with nonadhesive sterile gauze (Sato et al., Wound Repair Regen 2010; 18: 586-93). Mice were wrapped with a form-fitting bandage to further protect the biopsy sites. Wound contraction was recorded every other day by digital photography and changes calculated using NIH Image J software (available on the internet, version 1.37). Each treatment was tested and results averaged in a minimum of five independent animals/group.
A well-established murine model of wound healing was used to evaluate the effect of antibiotic treatment on the rate of wound repair (Devalaraja et al., J Invest Dermatol 2000; 115: 234-44). Identical full-thickness excisional biopsies were taken from skin sites treated with either antibiotic ointment or petrolatum (different treatments were administered to contralateral sides of each animal). Sequential photographs provided a permanent record of the speed of wound closure. Untreated biopsy sites and sites treated with petrolatum (ointment control), healed at nearly identical rates.

Data set [5] has as its system b-FGF. Kind of data set: Quantitative RT-PCR of mRNA at the wound site. To be noted: Bx sites on day 3. In kind it is in vivo, mice. On the procedure:
(§2) FIG. 6 is a bar graph of the effect of antibiotic ointment on the levels of b-FGF and TGFβ mRNA. Mice were treated as described in FIG. 3. Total RNA was extracted from the Bx sites on day 3. Quantitative RT-PCR was performed to detect b-FGF and TGFβ. Results represent the mean±SE of at least 4 independent samples/treatment group. *p<0.05 vs untreated group.
as §1

The test system of data set [6] is TGFβ. Kind of data set: Quantitative RT-PCR of mRNA at the wound site. The class given is in vivo, mice. The following applies: Bx sites on day 3. On the procedure:
as §2, §1

The subject of data set [7] is IL-1β mRNA. Kind of data set: Quantitative RT-PCR of mRNA at the wound site. The class given is in vivo, mice. The following applies: added to antibiotic ointment; day 3; p<0.05. Here is the method: as §1
Data set [8] relates to mice. The following applies: topical administration; cited from earlier work.
Data set [9] has as its system macaques. The following applies: topical administration; cited from earlier work.

Here are results for two compounds from US10076535B2, “Use of CPG oligonucleotides co-formulated with an antibiotic to accelerate wound healing” (THE UNITED STATES OF AMERICA, as represented by the …, priority 2012, dated 2018).

“Also recorded” adds a separate entry of the source.

As to `CC(C)Cn1cnc2c(N)nc3ccccc3c21` [IMQ, 1-isobutyl-1H-imidazo[4,5-c]quinolin-4-amine, reference compound], the “effect on antibiotic-reduced CCL2 mRNA level” value in [1] was “to a lesser extent IMQ corrected these defects”. Besides, the “expression of IFNa at the biopsy site” value in data set [2] is “reversed”. Also, the “expression of IFNβ at the biopsy site” value in data set [3] was “reversed”. Besides, in data set [4], the “effect on delay in wound healing caused by antibiotic” value is reported as “completely corrected the delay in wound healing; also recorded: reversed” and the “effect on wound healing” value is recorded as “no effect on wound healing”. Besides, the “expression of b-FGF at the wound site” value in data set [5] is “increased”. Moreover, the “expression of mRNA encoding TGFβ” value in data set [6] was “up-regulated”.
“CpG ODN: Phosphorothioate K-type CpG ODN 1555, sequence GCTAGACGTTAGCGT, SEQ ID NO: 30 (DNA, all phosphorothioate, methylation of C not given here)”: the “effect on antibiotic-reduced CCL2 mRNA level” value in data set [1] was “corrected these defects”. For the same compound, in [2], the “expression of IFNa at the biopsy site” value was “reversed”. Moreover, in [7], the “effect on antibiotic-reduced IL-1β mRNA level” value was “corrected these defects”. The “expression of IFNβ at the biopsy site” value in data set [3] is on record as “reversed”. In addition, in data set [4], the “effect on delay in wound healing caused by antibiotic” value is reported as “completely corrected the delay in wound healing; also recorded: reversed” and the “effect on wound healing” value is given as “no effect on wound healing”. Besides, the “expression of b-FGF at the wound site” value in data set [5] is listed as “increased”. For the same compound, the “expression of mRNA encoding TGFβ” value in [6] was “up-regulated”. For the same compound, the wound closure entry in data set [8] is “significantly accelerated wound closure”. The wound closure result in data set [9] is reported as “significantly accelerated wound closure”.
